Reference: PubChem BioAssay AID1963848 (Molecular Pharmacology Branch, DTP, NCI, 2024)
pIC50: −log10 of the molar value.

Tested on: 379773-124-R-J2-PDC spheroid viability
Test: Anticancer human tumor 379773-124-R-J2-PDC patient-derived endometrial carcinoma cell line growth inhibition [POLQ]
Details: spheroids with HUVEC and MSC; for pIC50: curve of first compound; for viability, T/C: stronger effect = lower value
Outline: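 PDC + HUVEC + MSC complex spheroids; POLQ inhibitors ± partner drugs; top conc. at/near clinical Cmax, else 10 microM (SN-38 1 microM), half-log dilutions; 37 degrees C, 5% CO2.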

[1] = second compound 0.0316 µM, first compound 0.0316 µM
[2] = second compound 0.0316 µM, first compound 0.1 µM
[3] = second compound 0.0316 µM, first compound 0.316 µM
[4] = second compound 0.0316 µM, first compound 1 µM
[5] = second compound 0.0316 µM, first compound 3.16 µM
[6] = second compound 0.0316 µM, first compound 10 µM
[7] = second compound 0.1 µM, first compound 0.0316 µM
[8] = second compound 0.1 µM, first compound 0.1 µM
[9] = second compound 0.1 µM, first compound 0.316 µM
[10] = second compound 0.1 µM, first compound 1 µM
[11] = second compound 0.1 µM, first compound 3.16 µM
[12] = second compound 0.1 µM, first compound 10 µM
[13] = second compound 0.316 µM, first compound 0.0316 µM
[14] = second compound 0.316 µM, first compound 0.1 µM
[15] = second compound 0.316 µM, first compound 0.316 µM
[16] = second compound 0.316 µM, first compound 1 µM
[17] = second compound 0.316 µM, first compound 3.16 µM
[18] = second compound 0.316 µM, first compound 10 µM
[19] = second compound 1 µM, first compound 0.0316 µM
[20] = second compound 1 µM, first compound 0.1 µM
[21] = second compound 1 µM, first compound 0.316 µM
[22] = second compound 1 µM, first compound 1 µM
[23] = second compound 1 µM, first compound 3.16 µM
[24] = second compound 1 µM, first compound 10 µM
[25] = second compound 3.16 µM, first compound 0.0316 µM
[26] = second compound 3.16 µM, first compound 0.1 µM
[27] = second compound 3.16 µM, first compound 0.316 µM
[28] = second compound 3.16 µM, first compound 1 µM
[29] = second compound 3.16 µM, first compound 3.16 µM
[30] = second compound 3.16 µM, first compound 10 µM
[31] = second compound 10 µM, first compound 0.0316 µM
[32] = second compound 10 µM, first compound 0.1 µM
[33] = second compound 10 µM, first compound 0.316 µM
[34] = second compound 10 µM, first compound 1 µM
[35] = second compound 10 µM, first compound 3.16 µM
[36] = second compound 10 µM, first compound 10 µM
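Note: spheroids exposed to drugs for seven days before readout.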
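Throughout, for viability, T/C: percent viability relative to DMSO vehicle control taken as 100%.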

SMILES: C#Cc1c(F)ccc2cc(O)cc(-c3ncc4c(N5CC6CCC(C5)N6)nc(OCC56CCCN5CC(F)C6)nc4c3F)c12 (stereo not given) + Cc1cccc(N(C)C(=O)C2C(O)CCN2c2nc(C)cc(C(F)(F)F)c2C#N)c1
- pIC50 (second compound 0.0316 µM): < 5.00
- pIC50 (second compound 0.1 µM): < 5.00
- pIC50 (second compound 0.316 µM): < 5.00
- pIC50 (second compound 1 µM): < 5.00
- pIC50 (second compound 3.16 µM): < 5.00
- pIC50 (second compound 10 µM): < 5.00
- viability, T/C [1]: 81.5%
- viability, T/C [2]: 89.3%
- viability, T/C [3]: 84%
- viability, T/C [4]: 74.6%
- viability, T/C [5]: 84%
- viability, T/C [6]: 82%
- viability, T/C [7]: 93.8%
- viability, T/C [8]: 68.7%
- viability, T/C [9]: 85.8%
- viability, T/C [10]: 75.2%
- viability, T/C [11]: 84.8%
- viability, T/C [12]: 93%
- viability, T/C [13]: 90.8%
- viability, T/C [14]: 93.4%
- viability, T/C [15]: 77.9%
- viability, T/C [16]: 86.5%
- viability, T/C [17]: 95.5%
- viability, T/C [18]: 88.4%
- viability, T/C [19]: 80%
- viability, T/C [20]: 78.9%
- viability, T/C [21]: 73.2%
- viability, T/C [22]: 82.2%
- viability, T/C [23]: 95.9%
- viability, T/C [24]: 90.6%
- viability, T/C [25]: 78.9%
- viability, T/C [26]: 87.3%
- viability, T/C [27]: 85.2%
- viability, T/C [28]: 80%
- viability, T/C [29]: 86.2%
- viability, T/C [30]: 79.4%
- viability, T/C [31]: 84.9%
- viability, T/C [32]: 79.7%
- viability, T/C [33]: 74.2%
- viability, T/C [34]: 78.4%
- viability, T/C [35]: 88.9%
- viability, T/C [36]: 93.8%

SMILES: CC1COCCN1c1cc(C2(O)CC3CCC(C2)O3)c2cnn(-c3ccn[nH]3)c2n1 (stereo not given) + Cc1cccc(N(C)C(=O)C2C(O)CCN2c2nc(C)cc(C(F)(F)F)c2C#N)c1
- pIC50 (second compound 0.0316 µM): 7.08
- pIC50 (second compound 0.1 µM): 7.03
- pIC50 (second compound 0.316 µM): 7.08
- pIC50 (second compound 1 µM): 7.02
- pIC50 (second compound 3.16 µM): 7.17
- pIC50 (second compound 10 µM): 7.17
- viability, T/C [1]: 75.6%
- viability, T/C [2]: 45.4%
- viability, T/C [3]: 14.1%
- viability, T/C [4]: 12.7%
- viability, T/C [5]: 7.12%
- viability, T/C [6]: 2.45%
- viability, T/C [7]: 82.8%
- viability, T/C [8]: 48.1%
- viability, T/C [9]: 15.9%
- viability, T/C [10]: 11.5%
- viability, T/C [11]: 7.15%
- viability, T/C [12]: 2.96%
- viability, T/C [13]: 84.9%
- viability, T/C [14]: 43.2%
- viability, T/C [15]: 11.8%
- viability, T/C [16]: 9.19%
- viability, T/C [17]: 6.89%
- viability, T/C [18]: 2.54%
- viability, T/C [19]: 80.8%
- viability, T/C [20]: 49%
- viability, T/C [21]: 12.2%
- viability, T/C [22]: 10.9%
- viability, T/C [23]: 7%
- viability, T/C [24]: 2.13%
- viability, T/C [25]: 70.6%
- viability, T/C [26]: 40.2%
- viability, T/C [27]: 15.1%
- viability, T/C [28]: 9.34%
- viability, T/C [29]: 7.31%
- viability, T/C [30]: 2.13%
- viability, T/C [31]: 68.3%
- viability, T/C [32]: 41.5%
- viability, T/C [33]: 15.1%
- viability, T/C [34]: 10.8%
- viability, T/C [35]: 7.1%
- viability, T/C [36]: 1.64%

SMILES: CCc1cc2c(N3CCc4c(cc(Cn5ccnc5)cc4-c4cn(C)nc4C(F)(F)F)C3=O)cc(C)nc2c(OC)n1 + Cc1cccc(N(C)C(=O)C2C(O)CCN2c2nc(C)cc(C(F)(F)F)c2C#N)c1
- pIC50 (second compound 0.0316 µM): < 5.00
- pIC50 (second compound 0.1 µM): < 5.00
- pIC50 (second compound 0.316 µM): < 5.00
- pIC50 (second compound 1 µM): 5.05
- pIC50 (second compound 3.16 µM): 5.17
- pIC50 (second compound 10 µM): 5.71
- viability, T/C [1]: 77.2%
- viability, T/C [2]: 80%
- viability, T/C [3]: 61.9%
- viability, T/C [4]: 62.4%
- viability, T/C [5]: 64%
- viability, T/C [6]: 48.9%
- viability, T/C [7]: 92.7%
- viability, T/C [8]: 69.5%
- viability, T/C [9]: 56.1%
- viability, T/C [10]: 58.4%
- viability, T/C [11]: 55.4%
- viability, T/C [12]: 46.9%
- viability, T/C [13]: 78.9%
- viability, T/C [14]: 72.9%
- viability, T/C [15]: 67.8%
- viability, T/C [16]: 59.4%
- viability, T/C [17]: 60.8%
- viability, T/C [18]: 51.4%
- viability, T/C [19]: 77.3%
- viability, T/C [20]: 68.2%
- viability, T/C [21]: 68.1%
- viability, T/C [22]: 59%
- viability, T/C [23]: 62.4%
- viability, T/C [24]: 46.6%
- viability, T/C [25]: 76.4%
- viability, T/C [26]: 73.6%
- viability, T/C [27]: 61%
- viability, T/C [28]: 53.9%
- viability, T/C [29]: 51.9%
- viability, T/C [30]: 48.1%
- viability, T/C [31]: 70.7%
- viability, T/C [32]: 64%
- viability, T/C [33]: 61.5%
- viability, T/C [34]: 49.2%
- viability, T/C [35]: 50.9%
- viability, T/C [36]: 41.2%

SMILES: O=C(Nc1ccc(O)c(NS(=O)(=O)c2ccc(F)cc2)c1)c1ccc(-c2ccccc2)cc1 + Cc1cccc(N(C)C(=O)C2C(O)CCN2c2nc(C)cc(C(F)(F)F)c2C#N)c1
- pIC50 (second compound 0.0316 µM): < 5.00
- pIC50 (second compound 0.1 µM): < 5.00
- pIC50 (second compound 0.316 µM): < 5.00
- pIC50 (second compound 1 µM): < 5.00
- pIC50 (second compound 3.16 µM): < 5.00
- pIC50 (second compound 10 µM): < 5.00
- viability, T/C [1]: 94.5%
- viability, T/C [2]: 109%
- viability, T/C [3]: 85.7%
- viability, T/C [4]: 102%
- viability, T/C [5]: 88.9%
- viability, T/C [6]: 75.3%
- viability, T/C [7]: 88.8%
- viability, T/C [8]: 91.8%
- viability, T/C [9]: 87.2%
- viability, T/C [10]: 92.4%
- viability, T/C [11]: 86.4%
- viability, T/C [12]: 85.8%
- viability, T/C [13]: 96.7%
- viability, T/C [14]: 104%
- viability, T/C [15]: 104%
- viability, T/C [16]: 99.6%
- viability, T/C [17]: 92.8%
- viability, T/C [18]: 87%
- viability, T/C [19]: 102%
- viability, T/C [20]: 86.2%
- viability, T/C [21]: 90.9%
- viability, T/C [22]: 90.2%
- viability, T/C [23]: 94.5%
- viability, T/C [24]: 75.5%
- viability, T/C [25]: 98.3%
- viability, T/C [26]: 90.3%
- viability, T/C [27]: 85.4%
- viability, T/C [28]: 92.5%
- viability, T/C [29]: 85.4%
- viability, T/C [30]: 71%
- viability, T/C [31]: 84%
- viability, T/C [32]: 93.1%
- viability, T/C [33]: 80.4%
- viability, T/C [34]: 94%
- viability, T/C [35]: 80.5%
- viability, T/C [36]: 62.3%

SMILES: COc1cccc2c1C(=O)c1c(O)c3c(c(O)c1C2=O)CC(O)(C(=O)CO)CC3OC1CC(N)C(O)C(C)O1 (stereo not given) + Nc1ccc(C#CCN(C(=O)Cc2ncc(C(F)(F)F)cc2C(F)(F)F)c2ccc(F)cc2)nn1
- pIC50 (second compound 0.0316 µM): 7.11
- pIC50 (second compound 0.1 µM): 7.12
- pIC50 (second compound 0.316 µM): 7.14
- pIC50 (second compound 1 µM): 7.18
- pIC50 (second compound 3.16 µM): 7.13
- pIC50 (second compound 10 µM): 7.26
- viability, T/C [1]: 84.7%
- viability, T/C [2]: 41.7%
- viability, T/C [3]: 11.1%
- viability, T/C [4]: 12.6%
- viability, T/C [5]: 1.86%
- viability, T/C [6]: 0.23%
- viability, T/C [7]: 87.7%
- viability, T/C [8]: 37.4%
- viability, T/C [9]: 15.2%
- viability, T/C [10]: 11.9%
- viability, T/C [11]: 2.13%
- viability, T/C [12]: 0.18%
- viability, T/C [13]: 90.3%
- viability, T/C [14]: 33.3%
- viability, T/C [15]: 11.8%
- viability, T/C [16]: 10.2%
- viability, T/C [17]: 1.88%
- viability, T/C [18]: 0.18%
- viability, T/C [19]: 89.8%
- viability, T/C [20]: 26%
- viability, T/C [21]: 9.42%
- viability, T/C [22]: 10.8%
- viability, T/C [23]: 1.71%
- viability, T/C [24]: 0.23%
- viability, T/C [25]: 85.1%
- viability, T/C [26]: 37.7%
- viability, T/C [27]: 11.3%
- viability, T/C [28]: 10.1%
- viability, T/C [29]: 3.23%
- viability, T/C [30]: 1.06%
- viability, T/C [31]: 71.2%
- viability, T/C [32]: 26.8%
- viability, T/C [33]: 10.9%
- viability, T/C [34]: 9.24%
- viability, T/C [35]: 1.29%
- viability, T/C [36]: 0.25%
